Source: US8318940B2, “Naphthyridin-2 (1 H)-one compounds useful as antibacterials” (Glaxo Group Limited, priority 2009, dated 2012)

Tested on: Mycobacterium tuberculosis H37Rv
Test: Mycobacterium tuberculosis H37Rv inhibition assay (MIC, resazurin)
Format: cell-based
Conditions: ATCC 25618 / H37Rv, H37Rv strain (ATCC25618), Middlebrook 7H9, 37° C. six days, resazurin fluorescence after 48 hours

Structure (SMILES) | MIC [µg/mL]
O=c1ccc2ncc(F)cc2n1CCN1CCC(NCc2cnc(CO)c(Br)c2)CC1 [Example 6, 1-{2-[4-({[5-bromo-6-(hydroxymethyl)-3-pyridinyl]methyl}amino)-1-piperidinyl]ethyl}-7-fluoro-1,5-naphthyridin-2(1H)-one] | ≤ 0.3
Cl.O=c1ccc2ncc(F)cc2n1CCN1CC[C@H](NCc2cnc(CO)c(Cl)c2)[C@H](O)C1 [Example 4, 1-{2-[(3R,4S)-4-({[5-chloro-6-(hydroxymethyl)-3-pyridinyl]methyl}amino)-3-hydroxy-1-piperidinyl]ethyl}-7-fluoro-1,5-naphthyridin-2(1H)-one hydrochloride] | ≤ 0.3
Cl.O=c1ccc2ncc(F)cc2n1CCN1CCC(NCc2cnc(CO)c(Cl)c2)CC1 [Example 2, 1-{2-[4-({[5-chloro-6-(hydroxymethyl)-3-pyridinyl]methyl}amino)-1-piperidinyl]ethyl}-7-fluoro-1,5-naphthyridin-2(1H)-one hydrochloride] | ≤ 0.3
COc1cnc2ccc(=O)n(CCN3CCC(NCc4cnc(CO)c(Cl)c4)CC3)c2c1 [Example 5, 1-{2-[4-({[5-chloro-6-(hydroxymethyl)-3-pyridinyl]methyl}amino)-1-piperidinyl]ethyl}-7-(methyloxy)-1,5-naphthyridin-2(1H)-one] | ≤ 0.3
O=c1ccc2ncc(F)cc2n1CCN1CC[C@H](NCc2cnc(CO)c(Cl)c2)[C@H](O)C1 [Example 3, 1-{2-[(3R,4S)-4-({[5-chloro-6-(hydroxymethyl)-3-pyridinyl]methyl}amino)-3-hydroxy-1-piperidinyl]ethyl}-7-fluoro-1,5-naphthyridin-2(1H)-one] | ≤ 0.3
O=c1ccc2ncc(F)cc2n1CCN1CCC(NCc2cnc(CO)c(Cl)c2)CC1 [Example 1, 1-{2-[4-({[5-chloro-6-(hydroxymethyl)-3-pyridinyl]methyl}amino)-1-piperidinyl]ethyl}-7-fluoro-1,5-naphthyridin-2(1H)-one] | ≤ 0.3
